Experimental data published in ChEMBL document CHEMBL1157176, “Total syntheses of (+/-)-ovalicin, C4(S *)-isomer, and its C5-analogs and anti-trypanosomal activities” (Bioorg Med Chem, 2008).
The source made the active and inactive calls. The rule behind the calls is not given here.

Tests used:
Trypanosoma brucei = assay: Antitrypanosomal activity against Trypanosoma brucei 427 after 48 hrs by luciferase assay; format: functional, organism-based; details: Trypanosoma brucei, 427, 48 h
HL-60 = assay: Antiproliferative activity against human HL60 cells; format: functional, cell-based

Compound | IC50 (Trypanosoma brucei) [µM] | Activity (HL-60)
CO[C@@H]1[C@]2(CC[C@H](O[Si](C)(C)C(C)(C)C)[C@@]1(O)/C(C)=C/CC=C(C)C)CO2 (relative stereo) | 0.28 | 
CO[C@@H]1C(=O)CC[C@]2(CO2)[C@]1(O)[C@@]1(C)O[C@@H]1CC=C(C)C (relative stereo) |  | Active
CO[C@@H]1C(=O)CC[C@]2(CO2)[C@]1(O)/C(C)=C/CC=C(C)C (relative stereo) | 41.5 | 
CO[C@@H]1[C@H](O[Si](C)(C)C(C)(C)C)CC[C@]2(CO2)[C@@]1(O)/C(C)=C/CC=C(C)C (relative stereo) | 0.4 | 

The next lines start with results.

IC50 (Trypanosoma brucei) [µM] | Compound | Activity (HL-60)
4.2 | CO[C@@H]1[C@@H](OC(=O)c2ccccc2)CC[C@]2(CO2)[C@]1(O)/C(C)=C/CC=C(C)C (relative stereo) | 
325 | O=C(O[C@H]1CC[C@]2(CO2)[C@H](O)[C@@H]1O)c1ccccc1 (relative stereo) | 
0.72 | O=C(O[C@@H]1CC[C@]2(CO2)[C@@H](O)[C@H]1O)c1ccccc1 (relative stereo) | 
47.3 | CO[C@H]1C(=O)[C@]2(CC[C@@H]1OC(=O)c1ccccc1)CO2 (relative stereo) | 
